# From US20120208781A1, “AMINOGLYCOSIDE DOSING REGIMENS” (Achaogen, Inc., priority 2009, published 2012)
# How the values were obtained:
# [1] = system: glomerular filtration rate; experiment: First-in-human phase 1 study: renal function (BUN, Cr, iothalamate GFR); type: in vivo; conditions: healthy volunteers
# Method: Safety evaluation was based on clinical observations, vital sign measurements, laboratory tests, physical examination, electrocardiogram, cochlear function, vestibular function testing, and reported adverse events. Cochlear function was evaluated by pure tone audiometry with bone conduction and otoacoustic emission (OAE) testing. Vestibular function was evaluated by electronystagmography (ENG) and Dynamic Visual Acuity (DVA) test. Laboratory tests included complete blood count (CBC), serum chemistries, and urinalysis. BUN and creatinine (Cr) were assessed daily on dosing days to allow the Investigator to monitor renal function. Results were used as criteria for dose escalation. The glomerular filtration rate (GFR) was estimated using iothalamate plasma measurements before dosing and after the multiple dose periods. GFR was also assessed by Cr clearance before dosing and after the multiple dose periods.
# Iothalamate was infused the day prior to the single-dose and prior to the first multiple-dose and the day after the last multiple-dose. Blood samples for iothalamate analysis for GFR calculation were obtained prior to the start of the iothalamate infusion and the following hours after the start of the infusion: 1, 2, 4, and 8.
# Enterobacteriaceae (ENT) = experiment: MIC, CLSI broth microdilution, worldwide isolates: Enterobacteriaceae; type: cell-based
# Description: (§1) In the first study, a total of 235 isolates were collected from medical centers worldwide and tested for susceptibility to Compound 1 and comparator agents by CLSI broth microdilution methods. […] Non-ENT GN pathogens included WT P. aeruginosa (PSA) and Acinetobacter spp. (ACB), and carbapenem (CARB)-R strains, including those with MBL and OXA enzymes, SA and coagulase-negative staphylococci (CoNS) included oxacillin-susceptible (MSSA/MS-CoNS) and —R (MRSA/MR-CoNS) strains.
# (§2) Minimum inhibitory concentrations (MIC) were determined by reference Clinical and Laboratory Standards Institute (CLSI) broth microdilution methods per M7-A7 [2006]. Briefly, serial two-fold dilutions of Compound 1 and comparator AGs (together, “the test compounds”) were prepared at 2× concentration in appropriate diluent. The dilutions were mixed in 96-well assay plates with bacterial inoculum. Bacteria were suspended in sterile saline and added to each assay plate to obtain a final concentration of 5.5×10^5 CFU/mL. The plates were incubated at 35° C. for 20 hours in ambient air. […] After incubation, assay plates were read using a microtiter plate reader at 600 nm.
# [2] = Plasma protein binding by equilibrium dialysis; type: in vitro ADME
# Method: Bioanalytical data analyses were carried out using Analyst software (version 1.4.1, Applied Biosystems, Toronto, ON, Canada). […] PK parameters were determined by noncompartmental analysis using WinNonLin. Plasma protein binding was determined using equilibrium dialysis. In vitro stability was determined using commercially available plasma, microsomes and hepatocytes.
# P. aeruginosa (PA) = experiment: MIC, broth microdilution, Brooklyn hospital isolates: P. aeruginosa; type: cell-based; conditions: Pseudomonas aeruginosa; PA (n = 33)
# Method: (§3) In another study, the activity of Compound 1 against a collection of contemporary Gram-negative bacteria was determined. Unique patient isolates of P. aeruginosa (PA), A. baumannii (AB), K. pneumoniae (KP), E. coli (EC), and Enterobacter spp. (EB) from prior surveys at 16 Brooklyn, N.Y. hospitals were selected based on resistance patterns. The majority of isolates were fingerprinted by automated ribotyping. MICs were performed by broth microdilution. PCR was used to identify aminoglycoside-modifying enzymes (AMEs) in AB and KP and the KPC gene in Enterobacteriaceae (EN). The expression of the efflux genes mexA, C, E and X in PA, and adeB in AB was assessed by real-time RT-PCR.
# Enterobacter spp. (EB) = experiment: MIC, broth microdilution, Brooklyn hospital isolates: Enterobacter spp.; type: cell-based; conditions: Enterobacter; EB (n = 30)
# Method: as §3
# S. aureus (SA) = experiment: MIC, CLSI broth microdilution, worldwide isolates: S. aureus; type: cell-based
# Description: as §1, §2
# A. baumannii (AB) = experiment: MIC, broth microdilution, Brooklyn hospital isolates: A. baumannii; type: cell-based
# Method: as §3
# [3] = Enterobacteriaceae, KPC, NMC, SME (15)
# [4] = Staphylococcus aureus, SA isolates
# [5] = Acinetobacter baumannii, AB (n = 38)
smiles,measurement,setting,value
"CN[C@@H]1[C@@H](O)[C@@H](O[C@@H]2[C@@H](O)[C@H](O[C@H]3OC(CNCCO)=CC[C@H]3N)[C@@H](N)C[C@H]2NC(=O)[C@@H](O)CCN)OC[C@]1(C)O [Compound 1, 6′-(2-Hydroxy-ethyl)-1-(4-amino-2(S)-hydroxy-butyryl)-sisomicin]",iothalamate plasma measurements (GFR),[1],did not change
same,MIC50,Enterobacteriaceae (ENT),≤ 0.25 µg/mL
same,MIC90,Enterobacteriaceae (ENT),2 µg/mL
same,Cumulative % inhibited at Cmpd. MIC 1,Enterobacteriaceae (ENT); Enterobacteriaceae (125),80.0%
same,Cumulative % inhibited at Cmpd. MIC 2,Enterobacteriaceae (ENT); Enterobacteriaceae (125),92.0%
same,Cumulative % inhibited at Cmpd. MIC 4,Enterobacteriaceae (ENT); Enterobacteriaceae (125),98.4%
same,Cumulative % inhibited at Cmpd. MIC 8,Enterobacteriaceae (ENT); Enterobacteriaceae (125),98.4%
same,Cumulative % inhibited at Cmpd. MIC 16,Enterobacteriaceae (ENT); Enterobacteriaceae (125),98.4%
same,Cumulative % inhibited at Cmpd. MIC 32,Enterobacteriaceae (ENT); Enterobacteriaceae (125),98.4%
same,Cumulative % inhibited at Cmpd. MIC 64,Enterobacteriaceae (ENT); Enterobacteriaceae (125),98.4%
same,Cumulative % inhibited at Cmpd. MIC >64,Enterobacteriaceae (ENT); Enterobacteriaceae (125),100.0%
same,Cumulative % inhibited at Cmpd. MIC ≦0.5,Enterobacteriaceae (ENT); Enterobacteriaceae (125),56.0%
same,Cumulative % inhibited at Cmpd. MIC 1,"Enterobacteriaceae (ENT); Enterobacteriaceae, AmpC (20)",85.0%
same,Cumulative % inhibited at Cmpd. MIC 2,"Enterobacteriaceae (ENT); Enterobacteriaceae, AmpC (20)",95.0%
same,Cumulative % inhibited at Cmpd. MIC 4,"Enterobacteriaceae (ENT); Enterobacteriaceae, AmpC (20)",95.0%
same,Cumulative % inhibited at Cmpd. MIC 8,"Enterobacteriaceae (ENT); Enterobacteriaceae, AmpC (20)",95.0%
same,Cumulative % inhibited at Cmpd. MIC 16,"Enterobacteriaceae (ENT); Enterobacteriaceae, AmpC (20)",95.0%
same,Cumulative % inhibited at Cmpd. MIC 32,"Enterobacteriaceae (ENT); Enterobacteriaceae, AmpC (20)",95.0%
same,Cumulative % inhibited at Cmpd. MIC 64,"Enterobacteriaceae (ENT); Enterobacteriaceae, AmpC (20)",95.0%
same,Cumulative % inhibited at Cmpd. MIC >64,"Enterobacteriaceae (ENT); Enterobacteriaceae, AmpC (20)",100.0%
same,Cumulative % inhibited at Cmpd. MIC ≦0.5,"Enterobacteriaceae (ENT); Enterobacteriaceae, AmpC (20)",75.0%
same,Cumulative % inhibited at Cmpd. MIC 1,"Enterobacteriaceae (ENT); Enterobacteriaceae, ESBL (20)",90.0%
same,Cumulative % inhibited at Cmpd. MIC 2,"Enterobacteriaceae (ENT); Enterobacteriaceae, ESBL (20)",95.0%
same,Cumulative % inhibited at Cmpd. MIC 4,"Enterobacteriaceae (ENT); Enterobacteriaceae, ESBL (20)",95.0%
same,Cumulative % inhibited at Cmpd. MIC 8,"Enterobacteriaceae (ENT); Enterobacteriaceae, ESBL (20)",95.0%
same,Cumulative % inhibited at Cmpd. MIC 16,"Enterobacteriaceae (ENT); Enterobacteriaceae, ESBL (20)",95.0%
same,Cumulative % inhibited at Cmpd. MIC 32,"Enterobacteriaceae (ENT); Enterobacteriaceae, ESBL (20)",95.0%
same,Cumulative % inhibited at Cmpd. MIC 64,"Enterobacteriaceae (ENT); Enterobacteriaceae, ESBL (20)",95.0%
same,Cumulative % inhibited at Cmpd. MIC >64,"Enterobacteriaceae (ENT); Enterobacteriaceae, ESBL (20)",100.0%
same,Cumulative % inhibited at Cmpd. MIC ≦0.5,"Enterobacteriaceae (ENT); Enterobacteriaceae, ESBL (20)",65.0%
same,Cumulative % inhibited at Cmpd. MIC 1,Enterobacteriaceae (ENT); [3],100.0%
same,Cumulative % inhibited at Cmpd. MIC ≦0.5,Enterobacteriaceae (ENT); [3],60.0%
same,Cumulative % inhibited at Cmpd. MIC 1,"Enterobacteriaceae (ENT); Enterobacteriaceae, MBL (10)",80.0%
same,Cumulative % inhibited at Cmpd. MIC 2,"Enterobacteriaceae (ENT); Enterobacteriaceae, MBL (10)",90.0%
same,Cumulative % inhibited at Cmpd. MIC 4,"Enterobacteriaceae (ENT); Enterobacteriaceae, MBL (10)",100.0%
same,Cumulative % inhibited at Cmpd. MIC ≦0.5,"Enterobacteriaceae (ENT); Enterobacteriaceae, MBL (10)",80.0%
same,Cumulative % inhibited at Cmpd. MIC 1,"Enterobacteriaceae (ENT); Enterobacteriaceae, WT (60)",70.0%
same,Cumulative % inhibited at Cmpd. MIC 2,"Enterobacteriaceae (ENT); Enterobacteriaceae, WT (60)",88.3%
same,Cumulative % inhibited at Cmpd. MIC 4,"Enterobacteriaceae (ENT); Enterobacteriaceae, WT (60)",100.0%
same,Cumulative % inhibited at Cmpd. MIC ≦0.5,"Enterobacteriaceae (ENT); Enterobacteriaceae, WT (60)",41.7%
same,fraction unbound,[2],> 0.8
same,MIC50,P. aeruginosa (PA),8 µg/mL
same,MIC90,P. aeruginosa (PA),16 µg/mL
same,MIC50,Enterobacter spp. (EB),1 µg/mL
same,MIC90,Enterobacter spp. (EB),4 µg/mL
same,Cumulative % inhibited at Cmpd. MIC 1,S. aureus (SA); SA (30),96.7%
same,Cumulative % inhibited at Cmpd. MIC 2,S. aureus (SA); SA (30),100.0%
same,Cumulative % inhibited at Cmpd. MIC ≦0.5,S. aureus (SA); SA (30),66.7%
same,Cumulative % inhibited at Cmpd. MIC 1,"S. aureus (SA); SA, MRSA (20)",100.0%
same,Cumulative % inhibited at Cmpd. MIC ≦0.5,"S. aureus (SA); SA, MRSA (20)",60.0%
same,Cumulative % inhibited at Cmpd. MIC 1,"S. aureus (SA); SA, MSSA (10)",90.0%
same,Cumulative % inhibited at Cmpd. MIC 2,"S. aureus (SA); SA, MSSA (10)",100.0%
same,Cumulative % inhibited at Cmpd. MIC ≦0.5,"S. aureus (SA); SA, MSSA (10)",80.0%
same,MIC50,S. aureus (SA); [4],≤ 0.25 µg/mL
same,MIC90,S. aureus (SA); [4],0.5 µg/mL
same,isolates with Compound 1 MICs >8,A. baumannii (AB); AB isolates with increased expression of adeB,69%
same,isolates with Compound 1 MICs>4,A. baumannii (AB); AB isolates with the AME aacA4,93%
same,isolates with Compound 1 MICs >8,A. baumannii (AB); AB isolates without increased expression of adeB,13%
same,isolates with Compound 1 MICs>4,A. baumannii (AB); AB isolates without the AME aacA4,50%
same,MIC50,A. baumannii (AB); [5],8 µg/mL
same,MIC90,A. baumannii (AB); [5],> 16 µg/mL
same,MIC,"A. baumannii (AB); Acinetobacter baumannii, AB isolates without AMEs, read-out: MICs achieved by some isolates",> 16 µg/mL
